Data reported in PubChem BioAssay (NCI).
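Five compound concentrations were applied to cells in 96-well plates for 48 hours; endpoints were derived by simple linear interpolation of the resulting dose-response curve. The concentration for 50% growth inhibition is given as GI50. TGI: concentration producing complete growth inhibition.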

Each compound was assayed on NCI-H522 lung (assay: inhibition of tumour cell growth, NCI panel, 48 h).

Row | Compound | TGI [µM] | GI50 [µM]
1 | S=C(Nc1ccccc1)N(/N=C/C=C/c1ccccc1)c1nnc(-c2ccccc2)c(-c2ccccc2)n1 | > 100 | –
2 | CN1CCN(CCOc2ccc(-c3cnc4c(-c5ccccc5F)cnn4c3)cc2)CC1 | 3.39 | 1.69
3 | COc1cc(C2CC(c3cccc(Br)c3)=NN2C(C)=O)cc(OC)c1OC (stereo not drawn) | 4.47 | 0.286

These compounds were tested on IGROV1 ovarian (assay: inhibition of tumour cell growth, NCI panel, 48 h).

Row | Compound | TGI [µM] | GI50 [µM]
4 | CC(C)N(C(=O)C12C3C4C5(C#N)C3C1(C#N)C5C42I)C(C)C (stereo not drawn) | > 100 | –
5 | COc1cc2nc(-c3ccc(Cl)cc3)cc(OCCCN3CCCCC3)c2cc1OC | > 100 | 0.838
6 | COc1ccc2c3c([nH]c2c1[N+](=O)[O-])C(C)=NCC3 | 77.2 | –
7 | C=C(c1nc2ccc(Cl)cc2[nH]c1=O)C(O)c1ccc(C(O)C(=O)c2nc3ccc(Cl)cc3[nH]c2=O)cc1 (stereo not drawn) | > 100 | –
8 | O=c1c2sc(=S)n(-c3ccc(F)cc3)c2ncn1Cc1ccc(F)cc1F | > 100 | > 100
9 | CC(C)(C)CC(C)(C)c1cc2c(O)c(c1)Cc1cc(C(C)(C)CC(C)(C)C)cc(c1O)Cc1cc(C(C)(C)CC(C)(C)C)cc(c1O)Cc1cc(C(C)(C)CC(C)(C)C)cc(c1O)C2 | > 100 | –
10 | Cc1cc([N+](=O)[O-])ccc1Nc1cccc(Cl)c1C | 27.6 | –
11 | Cn1cc(CO)c2c1C(=O)C=C(N1CC1)C2=O | 1.8 | < 0.0104
12 | CC1=C(C(=O)Nc2ccccc2)C(c2ccccc2)C(C(=O)Nc2ccccc2)=C(C)N1 | > 100 | –
13 | Cc1nn(-c2ccccc2)c2nc(N3CCOCC3)nnc12 | > 100 | –
14 | CC(C)c1ccc2c(c1)CC[C@@H]1[C@@](C)(C(=O)O)CCC[C@]21C | 29 | 5.55
15 | CCN(CC)CCOc1ccc(-c2nc3cc(Cl)ccc3s2)cc1 | 3.61 | 1.85
16 | C=C1C(=O)O[C@@H]2C[C@@H]1CC/C(C)=C/CC/C(C)=C/CC[C@@]2(C)O | 20.2 | 0.766
17 | CCOc1ccccc1C=C1c2ccccc2C(=O)c2ccccc21 | > 100 | –
18 | O=C(CCn1[nH]c(=O)c(Cl)c(Cl)c1=O)NO | > 100 | –
19 | CC(C)=CC/C=C(/C)[C@H]1CC[C@]2(C)[C@@H]1CC[C@@H]1[C@@]3(C)CCCNC(C)(C)[C@@H]3CC[C@]12C | 3.72 | 1.87
20 | [N-]=[N+]=NC12CC3C4CC5CC3C(C1)C(C5)C4C2 | > 100 | –
21 | CN(C)c1nc2ccccc2[nH]1 | > 100 | –
22 | NNC(=S)N/N=C(\CC1OC(=O)c2ccccc21)c1ccccc1O (stereo not drawn) | > 100 | –

Row | Compound | TGI [µM] | GI50 [µM]
23 | COC(=O)C1=C(O)c2cc(OC)c(OC)cc2C(c2ccc(OC)c(OC)c2)C1 (stereo not drawn) | > 100 | –
24 | COC1(OC)CC2C(=O)N(Cc3ccccc3)C1C(S(=O)(=O)c1ccccc1)C2S(=O)(=O)c1ccccc1 (stereo not drawn) | 32.3 | –
25 | NC(=Nc1c([N+](=O)[O-])cnc2ccccc12)N1CCOCC1 | > 100 | –
26 | COC(=O)C(=Cc1cc(OC)ccc1OC)C(=O)OC | 56.9 | –
27 | CC1=NNC(=O)C2CCC(=O)N12 (stereo not drawn) | > 100 | –
28 | CC(C)c1ccccc1NC(=O)CCc1n[nH]c(=S)o1 | > 100 | –
29 | CC(C)=CCNc1ncnc2c1ncn2C1OC(CO)C(O)C1O (stereo not drawn) | 19.2 | 0.573
30 | CCCCC(C(=O)C(=O)NC1C2CC3CC(C2)CC1C3)C(=O)C(C)C (stereo not drawn) | > 100 | –
31 | COC(=O)c1cc2c(s1)C(=O)c1ccccc1-2 | > 100 | –
32 | NC(=O)NC1C(c2ccccc2)=C1c1ccccc1 | 28.4 | –
33 | Cn1c2c(c3ccccc31)C1CCCCCCC1C1C(=O)OC(=O)C21 (stereo not drawn) | 73.8 | –
34 | Cc1ccc(S(=O)(=O)N(CC(=O)O)c2ccccc2)cc1 | > 100 | –
35 | COc1ccc(C(=O)C(c2ccc(OC)cc2)C2(O)C(=O)Nc3ccc([N+](=O)[O-])cc32)cc1 (stereo not drawn) | > 100 | –
36 | O=C(/C=C/c1ccccc1O)c1ccccc1O | > 100 | –
37 | N#CC(N)(C(=O)CCC(=O)Nc1cccc(Cl)c1)c1ccc(Cl)cc1 (stereo not drawn) | > 100 | –
38 | S=C(Nc1ccccc1)N(/N=C/C=C/c1ccccc1)c1nnc(-c2ccccc2)c(-c2ccccc2)n1 | > 100 | –
39 | CN1CCN(CCOc2ccc(-c3cnc4c(-c5ccccc5F)cnn4c3)cc2)CC1 | 3.58 | 1.81
40 | CN(C)N=Nc1ccc(NC=O)cc1 | > 100 | –
41 | COc1cc(C2CC(c3cccc(Br)c3)=NN2C(C)=O)cc(OC)c1OC (stereo not drawn) | > 100 | 2.04
